{
  "source": "patent US8557859B2",
  "about": "“Immunomodulatory compositions” (Summit (Wales) Limited, priority 2003, dated 2013)",
  "key": {"Dendritic cells [1]": {"system": "Dendritic cells", "experiment": "Induction of IL-12 secretion in dendritic cells (ELISA)", "assay_type": "cell-based, BALB/c mice", "details": "for IL-12 RELEASE: dendritic cells, compounds 50 μg/ml and 20 μg/ml, 24 hrs (or 48 hrs)", "procedure": "BALB/c male and female mice bred and maintained at the University of Strathclyde under conventional conditions were used at 8 weeks old.\nBone marrow was obtained from the femurs of mice. The femurs were washed in 70% ethanol and placed in a clean petri dish. Dendritic cell (DC) medium (2.5% granulocyte-macrophage colony-stimulating factor (GM-CSF), 10% […] foetal calf serum, 1% L-glutamine, 1% Penicillin/Streptomycin in RPMI-1640 medium) was injected into the bone marrow of the femur by a pumping action and the cells and medium were collected. 1 ml of the cells in medium was added to a 75 cm^2 flask with 15 mls of DC medium. The flasks were then incubated at 37° C., 5% CO2 to allow DC growth and development. After 5 days an additional 10 mls of DC medium was added.\nAfter 10 days of incubation of bone marrow with GM-CSF, the dendritic cells were harvested. This process was carried out in a tissue culture hood. The contents of the flasks were poured into centrifuge tubes to ensure collection of floating DCs. Approximately 10 mls of cooled phosphate buffered saline (PBS) was added to each empty flask, the flasks gently agitated and the contents collected. […] The collected contents of the flasks were centrifuged for 5 minutes at 200 g and the pellet resuspended in 2 mls of DC medium without GM-CSF. A cell count was then carried out.\nCells were counted using a haemocytometer. Approximately 20 μl of the resuspended cells was pipetted into the chamber of the haemocytometer, the cells were adjusted to the correct cell concentration (approx. 5×10^4, and not less than 1×10^4, per well) and then plated out for assay.\nThe plates were incubated overnight at 37° C. with 5% CO2 and allowed to settle (harvesting stimulates them). The next day the compounds (50 μg/ml and 20 μg/ml) and controls were added then again incubated at 37° C. with 5% CO2 for 24 hrs (or 48 hrs). Harvesting and addition of the compounds was all done in a hood. The plates were then frozen to kill the cells and once defrosted the supernatant analysed as described below.\nUsing an enzyme linked immunosorbent assay (ELISA) IL-12 concentration in the supernatants was measured. All reagents used in this assay were from PharMingen. A 96-well flat-bottomed ELISA plate was coated with purified rat anti-mouse IL-12 (p40/p70) MAb (Cat no. 554478) at 2 μg/ml diluted in PBS pH 9.0 at 50 μl/well. The plate was then covered in cling film and incubated at 4° C. Following incubation the plate was washed 3 times in washing buffer and dried. 200 μl of blocking buffer (10% foetal calf serum in PBS pH 7.0) was added to each well then covered in cling film and incubated at 37° C. for 45 minutes. The plate was washed 3 times and dried. Recombinant mouse Il-12 standard was added at 30 μl in duplicate wells, starting at 10 ng/ml then 5, 2.5, 1.25, 0.625, 0.31, 0.156, 0.078, 0.039, 0.020, 0.010, 0.005 ng/ml. Standards were diluted in blocking buffer. The supernatant samples were added in at 50 μl/well. The plate was then covered in cling film and incubated for 2 hours at 37° C. The plate was then washed 4 times, dried and the secondary antibody added.\nBiotin labelled anti-mouse IL-12 (p40/p70) MAb (Cat no. 18482D) at 1 μg/ml (diluted in blocking buffer) was added to each well at a volume of 100 μl/well. The plate was covered in cling film and incubated at 37° C. for 1 hour. The plate was then washed 5 times, dried and the conjugate added. Streptavidin-AKP (Cat no. 13043E) at 100 μl/well was added at a dilution of 1/2000 in blocking buffer followed by incubation under cling film at 37° C. for 45 minutes.\nThe plate was finally washed 6 times, dried and the substrate added. pNPP (Sigma) in glycine buffer at 1 mg/ml was added at 100 μl/well. The plate was then covered in tinfoil, incubated at 37° C. and checked every 30 minutes for a colour change.\nThe plate was then read at 405 nm using a SPECTRAmax 190 spectrometer."}, "Dendritic cells [2]": {"system": "Dendritic cells", "assay_type": "cell-based, BALB/c mice", "experimental": "Bone marrow was obtained from the femurs of mice. The femurs were washed in 70% ethanol and placed in a clean petri dish. Dendritic cell (DC) medium (2.5% granulocyte-macrophage colony-stimulating factor (GM-CSF), 10% heat and activated foetal calf serum, 1% L-glutamine, 1% Penicillin/Streptomycin in RPMI-1640 medium) was injected into the bone marrow of the femur by a pumping action and the cells and medium were collected. 1 ml of the cells in medium was added to a 75 cm^2 flask with 15 mls of DC medium. The flasks were then incubated at 37° C., 5% CO2 to allow DC growth and development. After 5 days an additional 10 mls of DC medium was added.\nAfter 10 days of incubation of bone marrow with GM-CSF, the dendritic cells were harvested. This process was carried out in a tissue culture hood. The contents of the flasks were poured into centrifuge tubes to ensure collection of floating DCs. Approximately 10 mls of cooled phosphate buffered saline (PBS) was added to each empty flask, the flasks gently agitated and the contents collected. This ensured recovery of adhesive DCs. […]\nCells were counted using a haemocytometer. […]\nThe plates were incubated overnight at 37° C. with 5% CO2 and allowed to settle (harvesting stimulates them). […] The plates were then frozen to kill the cells and once defrosted the supernatant analysed as described below."}, "Spleen cells": {"system": "Spleen cells", "experiment": "Cytokine modulation in spleen cells: splenocyte IFN-γ production", "assay_type": "cell-based, BALB/c mice", "details": "for IFN-γ: splenocytes", "procedure": "BALB/c male and female mice bred and maintained at the University of Strathclyde under conventional conditions were used at varying age.\nThe mouse spleen was removed aseptically and placed in a sterile petri dish containing 5 mls of complete medium (RPMI, 1% L-Glutamine, 1% Penicillin/Streptomycin and 10% foetal calf serum). Cells suspensions were prepared by using the end of a syringe and grinding the spleen through a wire mesh. The cell suspension was then centrifuged at 1000 rpm for 5 minutes. To remove the erythrocytes, the cell pellet was resuspended in Boyle's solution (Tris 0.17M & Ammonium Chloride 0.16M) and centrifuged again for 5 minutes. The pellet was then washed in medium a further two times, then resuspended in 3 mls medium. A cell count was then carried out.\nAll spleen cell experiments were carried out in 96-well tissue culture plates. […] Unstimulated wells contained 100 μl of cells and 100 μl of medium. The stimulated wells contained 100 μl of cells plus 50 μl of LPS at 1 μg/ml or 50 μl anti-CD3 at 0.5 μg/ml and 50 μl of medium. The remaining wells contained 100 μl cells, 50 μl of MNLP compound and either 50 μl of anti-CD3 or medium alone.\nThe appropriate Mabs and standards were used according to the protocol described for IL-12 (described in Example 1, above)."}, "α-D-glucosidase [3]": {"system": "α-D-glucosidase", "experiment": "Glycosidase inhibition, α-D-glucosidase (Bacillus)", "assay_type": "biochemical, Bacillus stearothermophilus", "details": "1 mg/ml", "procedure": "(§1) All enzymes were purchased from Sigma, as were the appropriate p-nitrophenyl substrates. Assays were carried out in microtitre plates. Enzymes were assayed in 0.1 M citric acid/0.2M di-sodium hydrogen phosphate (McIlvaine) buffers at the optimum pH for the enzyme. All assays were carried out at 20° C. For screening assays the incubation assay consisted of 10 μl of enzyme solution, 10 μl of inhibitor solution (made up in water) and 50 μl of the appropriate 5 mM p-nitrophenyl substrate (3.57 mM final conc.) made up in McIlvaine buffer at the optimum pH for the enzyme.\n(§2) The reactions were stopped with 0.4M glycine (pH 10.4) during the exponential phase of the reaction, which was determined at the beginning of the assay using blanks with water, which were incubated for a range of time periods to measure the reaction rate using 5 mM substrate solution. Endpoint absorbances were read at 405 nm with a Biorad microtitre plate reader (Benchmark). Water was substituted for the inhibitors in the blanks."}, "β-D-glucosidase": {"system": "β-D-glucosidase", "experiment": "Glycosidase inhibition, β-D-glucosidase", "assay_type": "biochemical, Almonds (Prunus sp.)", "details": "for % inhibition glucosidase: 1 mg/ml", "procedure": "as §1, §2"}, "Naringinase": {"system": "Naringinase", "experiment": "Glycosidase inhibition, Naringinase", "assay_type": "biochemical, Penecillium decumbens", "details": "1 mg/ml", "procedure": "as §1, §2"}, "[4]": {"system": "N-acetyl-β-D-glucosaminidase", "experiment": "Glycosidase inhibition, N-acetyl-β-D-glucosaminidase", "assay_type": "biochemical, Bovine kidney", "details": "1 mg/ml", "procedure": "as §1, §2"}, "[5]": {"system": "glycosidase enzymes of Table 4.1", "experiment": "Glycosidase inhibition, all enzymes tested (Table 4.1)", "assay_type": "biochemical", "details": "1 mg/ml; result in words", "procedure": "as §1, §2"}, "[6]": {"system": "spleen cells from Leishmania major infected BALB/c mice", "experiment": "Non-healing leishmaniasis model: splenocyte IFN-γ", "assay_type": "cell-based", "details": "for IFN-γ: Table 10.1"}, "[7]": {"system": "spleen cells from Leishmania major infected BALB/c mice", "experiment": "Non-healing leishmaniasis model: splenocyte IL-5", "assay_type": "cell-based"}, "α-D-glucosidase [8]": {"biological_target": "T1, α-D-glucosidase (Saccharomyces cerevisiae, UniProt P53341)", "T1 construct": "purchased Sigma", "T1 sequence (P53341 whole entry)": "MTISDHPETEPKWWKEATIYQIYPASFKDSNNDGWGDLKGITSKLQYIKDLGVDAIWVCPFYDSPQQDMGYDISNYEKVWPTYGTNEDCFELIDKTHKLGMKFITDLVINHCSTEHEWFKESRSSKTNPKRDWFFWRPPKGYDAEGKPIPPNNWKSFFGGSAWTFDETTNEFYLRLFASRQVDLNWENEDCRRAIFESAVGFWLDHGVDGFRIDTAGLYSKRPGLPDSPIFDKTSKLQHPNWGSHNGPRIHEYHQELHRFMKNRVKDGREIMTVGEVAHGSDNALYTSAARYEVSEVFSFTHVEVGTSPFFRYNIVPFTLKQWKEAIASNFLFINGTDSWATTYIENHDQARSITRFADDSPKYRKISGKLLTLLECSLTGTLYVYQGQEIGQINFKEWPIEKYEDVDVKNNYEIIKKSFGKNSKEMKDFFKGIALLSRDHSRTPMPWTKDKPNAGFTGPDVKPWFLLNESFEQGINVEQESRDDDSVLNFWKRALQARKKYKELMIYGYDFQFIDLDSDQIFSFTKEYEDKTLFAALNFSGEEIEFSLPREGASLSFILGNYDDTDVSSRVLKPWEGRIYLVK", "experiment": "Glycosidase inhibition, α-D-glucosidase (yeast)", "assay_type": "biochemical, Saccharomyces cerevisiae (Baker's yeast)", "details": "at a concentration of 800 μM", "procedure": "as §1, §2"}, "β-D-galactosidase": {"system": "β-D-galactosidase", "experiment": "Glycosidase inhibition, β-D-galactosidase", "assay_type": "biochemical, Bovine liver", "details": "1 mg/ml; second galactosidase line", "procedure": "as §1, §2"}, "[9]": {"biological_target": "rabbit gut mucosa α-D-glucosidase", "experiment": "Inhibition of rabbit gut mucosa α-D-glucosidase", "assay_type": "biochemical"}, "[10]": {"biological_target": "T2, rabbit small intestine sucrase (Oryctolagus cuniculus, UniProt P07768)", "T2 construct": "from tissue; host or cells: rabbit small intestine", "T2 sequence (P07768 whole entry)": "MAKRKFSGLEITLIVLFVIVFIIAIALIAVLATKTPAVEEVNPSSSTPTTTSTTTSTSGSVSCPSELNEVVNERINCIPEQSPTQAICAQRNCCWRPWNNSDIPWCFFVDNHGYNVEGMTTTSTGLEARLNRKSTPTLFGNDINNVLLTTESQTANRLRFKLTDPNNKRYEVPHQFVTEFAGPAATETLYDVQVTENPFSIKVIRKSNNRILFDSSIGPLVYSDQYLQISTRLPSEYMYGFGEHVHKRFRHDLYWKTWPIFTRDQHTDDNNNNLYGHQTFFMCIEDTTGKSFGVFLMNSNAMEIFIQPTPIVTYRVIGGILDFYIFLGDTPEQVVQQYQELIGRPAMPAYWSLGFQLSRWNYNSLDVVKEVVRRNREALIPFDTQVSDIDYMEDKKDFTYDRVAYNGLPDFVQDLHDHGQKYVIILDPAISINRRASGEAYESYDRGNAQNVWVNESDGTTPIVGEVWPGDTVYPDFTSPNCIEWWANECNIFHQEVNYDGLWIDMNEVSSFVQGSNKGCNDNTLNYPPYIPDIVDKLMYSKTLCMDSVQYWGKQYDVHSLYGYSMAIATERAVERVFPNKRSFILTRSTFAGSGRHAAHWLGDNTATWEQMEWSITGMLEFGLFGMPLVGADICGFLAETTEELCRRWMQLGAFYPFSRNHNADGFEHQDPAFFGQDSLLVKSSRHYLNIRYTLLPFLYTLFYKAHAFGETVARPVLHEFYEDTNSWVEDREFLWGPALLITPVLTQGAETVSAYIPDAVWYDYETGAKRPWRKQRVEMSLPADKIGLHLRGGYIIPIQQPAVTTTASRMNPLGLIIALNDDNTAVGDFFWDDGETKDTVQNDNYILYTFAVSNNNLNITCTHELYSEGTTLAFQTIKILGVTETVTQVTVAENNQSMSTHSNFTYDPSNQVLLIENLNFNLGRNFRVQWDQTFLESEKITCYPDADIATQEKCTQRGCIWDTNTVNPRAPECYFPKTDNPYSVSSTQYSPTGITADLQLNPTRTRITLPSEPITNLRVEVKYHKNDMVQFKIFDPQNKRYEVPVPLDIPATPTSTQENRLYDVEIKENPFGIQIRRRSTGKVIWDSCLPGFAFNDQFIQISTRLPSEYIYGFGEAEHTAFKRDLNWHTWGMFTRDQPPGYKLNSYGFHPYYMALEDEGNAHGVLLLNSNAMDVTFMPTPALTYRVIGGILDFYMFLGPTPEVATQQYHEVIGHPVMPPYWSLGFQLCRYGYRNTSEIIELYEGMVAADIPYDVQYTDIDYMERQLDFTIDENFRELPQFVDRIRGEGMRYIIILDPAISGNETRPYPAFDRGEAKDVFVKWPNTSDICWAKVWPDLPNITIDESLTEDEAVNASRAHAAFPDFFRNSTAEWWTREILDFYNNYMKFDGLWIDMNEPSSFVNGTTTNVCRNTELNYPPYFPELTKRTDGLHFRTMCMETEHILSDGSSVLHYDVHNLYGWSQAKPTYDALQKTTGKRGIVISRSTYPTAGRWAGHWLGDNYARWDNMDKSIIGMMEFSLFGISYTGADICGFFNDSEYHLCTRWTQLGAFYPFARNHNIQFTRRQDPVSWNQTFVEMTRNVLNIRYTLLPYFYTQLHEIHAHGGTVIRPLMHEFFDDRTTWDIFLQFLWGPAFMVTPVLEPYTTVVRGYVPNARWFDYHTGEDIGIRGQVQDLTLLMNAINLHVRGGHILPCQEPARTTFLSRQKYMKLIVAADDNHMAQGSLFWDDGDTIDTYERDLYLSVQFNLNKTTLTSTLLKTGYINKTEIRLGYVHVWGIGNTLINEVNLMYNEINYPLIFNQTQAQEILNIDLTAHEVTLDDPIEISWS", "experiment": "Inhibition of rabbit small intestine sucrase", "assay_type": "biochemical", "details": "at a concentration of 700 μM"}, "[11]": {"system": "Na^+-dependent D-glucose uptake into ovine intestinal brush border membrane vesicles", "experiment": "Effect on glucose transport (competition assay with labelled D-glucose)", "assay_type": "biochemical"}, "α-mannosidase": {"system": "α-mannosidase", "details": "background statement; cited from earlier work"}},
  "note": "Like-named read-outs stand apart in the source and are kept apart here.",
  "data": [
    {"smiles": "OC[C@H]1[C@@H](O)[C@H](O)[C@H]2[C@@H](O)[C@@H](O)CN21", "note": "[3,7-diepi-casuarine (10), (1R,2R,3S,6S,7R,7aR)-3-(Hydroxymethyl)-1,2,6,7-tetrahydroxypyrrolizidine]", "values": [
      {"measurement": "IL-12 RELEASE", "setting": "Dendritic cells [1]", "result": "Yes"},
      {"measurement": "IL-2 (units/ml)", "setting": "Dendritic cells [2]; compound + LPS", "result": 0.69, "unit": "units/ml"},
      {"measurement": "IL-2 (units/ml)", "setting": "Dendritic cells [2]; treatment alone", "result": 0.00, "unit": "units/ml"},
      {"measurement": "IFN-γ", "setting": "Spleen cells; Table 3.1, treatment alone", "result": 0.22, "unit": "ng/mL"},
      {"measurement": "% inhibition gluc (Bacillus)", "setting": "α-D-glucosidase [3]", "result": "−7", "unit": "%"},
      {"measurement": "% inhibition glucosidase", "setting": "β-D-glucosidase", "result": 5, "unit": "%"},
      {"measurement": "% inhibition Naringinase", "setting": "Naringinase", "result": 6, "unit": "%"},
      {"measurement": "% inhibition N-acetyl-β-gluc", "setting": "[4]", "result": "−6", "unit": "%"},
      {"measurement": "inhibition of any of the enzymes tested", "setting": "[5]", "result": "do not significantly inhibit any of the enzymes tested"},
      {"measurement": "IFN-γ", "setting": "[6]; compound + L. major Ag", "result": 5.5, "unit": "ng/mL"},
      {"measurement": "IFN-γ", "setting": "[6]; treatment alone", "result": "~0.5", "unit": "ng/mL"},
      {"measurement": "IFN-γ (healing Th1 response)", "setting": "[6]; result in words", "result": "enhances IFN-γ"},
      {"measurement": "IL-5", "setting": "[7]; Table 10.2, compound + αCD3", "result": 150, "unit": "pg/mL"},
      {"measurement": "Th2 response (IL-5)", "setting": "[7]; result in words", "result": "suppressing the Th2 response (via downregulation of the Th2 cytokine IL-5)"}
    ]},
    {"smiles": "O[C@H]1[C@H](O)[C@@H](O)CN2CC[C@H](O)[C@H]12", "note": "[Castanospermine (20), Castanospermine, reference compound]", "values": [
      {"measurement": "IL-12 RELEASE", "setting": "Dendritic cells [1]", "result": "No"},
      {"measurement": "IFN-γ", "setting": "Spleen cells; Table 3.2, compound + αCD3", "result": 9.0, "unit": "ng/mL"},
      {"measurement": "IFN-γ", "setting": "Spleen cells; Table 3.2, treatment alone", "result": "<1.0", "unit": "ng/mL"},
      {"measurement": "IFN-γ secretion/production in splenocytes", "setting": "Spleen cells; result in words", "result": "inhibits the production of this cytokine"},
      {"measurement": "inhibition of yeast α-D-glucosidase", "setting": "α-D-glucosidase [8]", "result": "not being inhibitory"},
      {"measurement": "% inhibition gluc (Bacillus)", "setting": "α-D-glucosidase [3]", "result": 6, "unit": "%"},
      {"measurement": "% inhibition glucosidase", "setting": "β-D-glucosidase", "result": 88, "unit": "%"},
      {"measurement": "Ki", "setting": "β-D-glucosidase; read-out: Ki with almond 6-D-glucosidase", "result": 9, "unit": "µM"},
      {"measurement": "% inhibition galactosidase", "setting": "β-D-galactosidase", "result": 16, "unit": "%"},
      {"measurement": "% inhibition Naringinase", "setting": "Naringinase", "result": 39, "unit": "%"},
      {"measurement": "% inhibition N-acetyl-β-gluc", "setting": "[4]", "result": 16, "unit": "%"},
      {"measurement": "IC50", "setting": "[9]", "result": 8, "unit": "µM"},
      {"measurement": "inhibition of rabbit small intestine sucrase", "setting": "[10]", "result": "inhibited"},
      {"measurement": "Glucose uptake", "setting": "[11]; initial rate, control 240", "result": 225, "unit": "pmol/s/mg"},
      {"measurement": "glucose transport", "setting": "[11]; result in words", "result": "slightly inhibited"}
    ]},
    {"smiles": "O[C@H]1[C@H]2[C@H](O)CCCN2C[C@H]1O", "note": "[Swainsonine (4), Swainsonine]", "values": [
      {"measurement": "IL-12 RELEASE", "setting": "Dendritic cells [1]", "result": "No"},
      {"measurement": "IL-12 secretion", "setting": "Dendritic cells [1]; tested at 50 μg/ml", "result": "failed to induce IL-12 secretion"},
      {"measurement": "inhibition of α-mannosidase", "setting": "α-mannosidase", "result": "potent and specific inhibitor of α-mannosidase"}
    ]}
  ]
}
